EP4740942A1, “AROMATIC AMIDE DERIVATIVE AND USE THEREOF” (HUAJIAN FUTURE (CHENGDU) TECHNOLOGY CO., LTD., priority 2023, dated 2025)

What was measured:
[1] = tested on: lung cancer cells A427; assay: 3D model proliferation inhibitory activity test against lung cancer cells A427 (CellTiter-3D-Glo); assay type: cell-based; details: Homo sapiens, A-427, low-adhesion 96-well U-bottom plate
Description: (§1) Cell proliferation activity was detected by a CellTiter-3D-Glo reagent method. A specific method was as follows: A427 cells in logarithmic growth period were digested, diluted to a suitable cell density with MEM complete medium containing 10% FBS and 1% PS, inoculated into a low-adhesion 96-well U-bottom plate, and cultured in 5% CO2; and then a series of to-be-tested compounds with concentration gradient was added, and incubated in a 5% CO2 incubator. After finishing the incubation, the cells were lysed and detected by using the CellTiter-3D-Glo reagent. Chemiluminescence values were measured by a microplate reader, and data were fitted by Graphpad Prism software, so as to calculate IC50 values of tested substances.

[2] = tested on: colorectal cancer cells HCT116; assay: Proliferation inhibitory activity test against colorectal cancer cells HCT116 (CellTiter-3D-Glo); assay type: cell-based; details: Homo sapiens, HCT-116, low-adhesion 96-well U-bottom plate
Description: Cell proliferation activity was detected by a CellTiter-3D-Glo reagent method. A testing process was as follows: HCT116 cells in logarithmic growth period were digested, diluted to a suitable cell density with McCoy's 5A complete medium containing 10% FBS and 1% PS, inoculated into a low-adhesion 96-well U-bottom plate, and cultured in 5% CO2; and then a series of to-be-tested compounds with concentration gradient was added, and the system was incubated in a 5% CO2 incubator. After finishing the incubation, the cells were lysed and detected by using the CellTiter-3D-Glo reagent. Chemiluminescence values were measured by a microplate reader, and data were fitted by Graphpad Prism software, so as to calculate IC50 values of tested substances. Test results can be seen in the following table: wherein, "A" represents inhibitory activity IC50 < 20 nM, "B" represents inhibitory activity 20 nM ≤ IC50 < 50 nM, and "C" represents inhibitory activity IC50 ≥ 50 nM.

[3] = tested on: colorectal cancer cells SW480; assay: 3D model proliferation inhibitory activity test against colorectal cancer cells SW480 (CellTiter-3D-Glo); assay type: cell-based; details: Homo sapiens, low-adhesion 96-well U-bottom plate
Description: as §1, with “SW480” for “A427”, “DMEM” for “MEM”

[4] = tested on: pancreatic cancer cells MIA PaCa-2; assay: Pharmacodynamic experiment of subcutaneous xenograft tumor model of pancreatic cancer cells MIA PaCa-2; assay type: in vivo, BALB/c nude mice; details: 0.2 mg/kg, QD × 15 days, oral gavage; for diets, weights and activities of the animals during the drug administration / Tumor inhibition rate: BALB/c nude mice; for Tumor inhibition rate: MIA PaCa-2 subcutaneous xenograft; for inhibitory effects on the growth of subcutaneously transplanted tumors of pancreatic cancer MIA PaCa-2 cells in the nude mice: result in words
[5] = tested on: colorectal cancer cells SW480; assay: Pharmacodynamic experiment of subcutaneous xenograft tumor model of colorectal cancer cells SW480; assay type: in vivo, BALB/c nude mice; details: 0.2 mg/kg, QD × 18 days, oral gavage
Description: Animal species and number: BALB/c nude mice, 6 mice in each group.
Experimental samples: compound 4-1 and compound Ref A-1.
Experimental groups: blank solvent control group, compound 4-1 (0.2 mg/kg, QD × 18 days) and compound Ref A-1 (0.2 mg/kg, QD × 18 days).
Establishment of animal model: SW480 tumor cells in logarithmic growth period were cultured and collected in vitro, and inoculated subcutaneously in right backs of the Balb/c Nude mice, and when tumors grew to about 180-250 mm^3, the tumor-bearing mice were randomly divided into groups. Subsequently, each group of animals were administered with drugs, and the first day of drug administration was defined as the 1st day of the experiment.
Drug administration route and frequency: oral gavage, once per day, for 18 consecutive days.
General state observation: the mice were observed once per day, and observation contents included, but were not limited to, locally administered parts, physical signs, general behaviors, mental states, death and other situations, and other abnormal manifestations of the animals.
Tumor volume calculation: V = 0.5 a × b^2, wherein a was a long diameter of tumor and b was a short diameter of tumor. Tumor growth inhibition rates TGI (%) were used to evaluate anti-tumor effects of the compounds. […]

[6] = In-vivo pharmacokinetic study in SD rats; details: 0.2 mg/kg
Description: Pharmacokinetic study on compound 4-1 in SD rats was conducted. 12 SD rats (half male and half female) were selected and randomly divided into 2 groups (3 rats/sex/group) according to their body weights, and the groups were recorded as a group 1 and a group 2, which were administered with 0.2 mg/kg compound 4-1 by intravenous and oral gavage route respectively. All the experimental animals were administered with a single dose on Day 0, and a drug administration moment was recorded as 0 hour. About 0.25 mL of whole blood (EDTA-K2) was respectively collected from all the experimental animals in group 1 before the drug administration, at 5 minutes, 15 minutes, 30 minutes, 1 hour, 2 hours, 4 hours, 6 hours, 8 hours and 24 hours after finishing the drug administration to prepare plasma; and about 0.25 mL of whole blood (EDTA-K2) was respectively collected from all the experimental animals in group 2 before the drug administration, at 15 minutes, 30 minutes, 1 hour, 2 hours, 4 hours, 6 hours, 8 hours and 24 hours after finishing the drug administration to prepare plasma. The compounds in the plasma samples were quantitatively determined by a LC-MS/MS method, and pharmacokinetic parameters were analyzed and calculated by non-compartmental analysis.

For `[2H]C([2H])(C=C)NC(=O)c1cc(Cc2ccnc(NS(=O)(=O)NC)c2F)c(F)c(F)c1Nc1ccc(I)cc1F` [Compound 4-7, N-(allyl-1,1-d2) -3,4-difluoro-5-((3-fluoro-2-((N-methylaminosulfonyl)amino)pyridin-4-yl)methyl)-2-((2-fluoro-4-iodophenyl)amino)benzamide], which IC50 [1] is on record?
The IC50 was 1.09 nM.

Which IC50 [2] does the source give for `C=CCNC(=O)c1cc(Cc2ccnc(NS(=O)(=O)NC)c2F)c(F)c(F)c1Nc1ccc(I)cc1F` [Compound 4-1, N-allyl-3,4-difluoro-5-((3-fluoro-2-((N-methylaminosulfonyl)amino)pyridin-4-yl)methyl)-2-((2-fluoro-4-iodophenyl)amino)benzamide] here?
Its IC50 is under 20 nM.

And the IC50 [3]?
The IC50 was 0.89 nM.

And the IC50 [1]?
The IC50 was 1.16 nM.

And the “diets, weights and activities of the animals during the drug administration” value [4]?
The value was “normal”.

What about the Tumor inhibition rate [4] of the same compound?
The Tumor inhibition rate was “+++ (tumor inhibition rate > 90%)”.

What about the “inhibitory effects on the growth of subcutaneously transplanted tumors of pancreatic cancer MIA PaCa-2 cells in the nude mice” value [4] of the same compound?
The value was “significant inhibitory effects”.

What about the Tumor inhibition rate ([5]; SW480 subcutaneous xenograft, BALB/c nude mice) of the same compound?
The Tumor inhibition rate was “++++ (tumor inhibition rate > 100%)”.

What about the “inhibitory effect on the growth of subcutaneously transplanted tumors of colorectal cancer SW480 cells in the nude mice” value ([5]; result in words) of the same compound?
Its value is “significant inhibitory effect”.

What about the bioavailability ([6]; both sexes, rat, plasma, single dose, intravenous and oral gavage, read-out: absolute bioavailability (F%)) of the same compound?
Its bioavailability is over 65%.

And the “absorption and clearance rates” value ([6]; result in words)?
The value was “greater”.

For `C=CCCONC(=O)c1cc(Cc2ccnc(NS(=O)(=O)NC)c2F)c(F)c(F)c1Nc1ccc(I)cc1F` [Compound 5-2, N-(but-3-en-1-yloxy)-3,4-difluoro-5-((3-fluoro-2-((N-methylaminosulfonyl)amino)pyridin-4-yl)methyl)-2-((2-fluoro-4-iodophenyl)amino)benzamide], which IC50 [3] is on record?
The IC50 was 0.63 nM.

For `C=CCONC(=O)c1cc(Cc2ccnc(NS(=O)(=O)NC)c2F)c(F)c(F)c1Nc1ccc(I)cc1F` [Compound 5-1, N-(allyloxy)-3,4-difluoro-5-((3-fluoro-2-((N-methylaminosulfonyl)amino)pyridin-4-yl)methyl)-2-((2-fluoro-4-iodophenyl)amino)benzamide], which IC50 [3] is on record?
Its IC50 is 0.17 nM.

What about the IC50 [1] of the same compound?
The IC50 was 0.53 nM.

What about the “diets, weights and activities of the animals during the drug administration” value [4] of the same compound?
The value was “normal”.

And the Tumor inhibition rate [4]?
The Tumor inhibition rate was “+++ (tumor inhibition rate > 90%)”.

And the “inhibitory effects on the growth of subcutaneously transplanted tumors of pancreatic cancer MIA PaCa-2 cells in the nude mice” value [4]?
The value was “significant inhibitory effects”.

Which IC50 [2] does the source give for `C=CCNC(=O)c1cc(Cc2ccnc(NS(=O)(=O)NCC)c2F)c(F)c(F)c1Nc1ccc(I)cc1F` [Compound 4-8, N-allyl-5-((2-((N-ethylaminosulfonyl)amino)-3-fluoropyridin-4-yl)methyl)-3,4-difluoro-2-((2-fluor o-4-iodophenyl)amino)benzamide] here?
The IC50 was under 20 nM.

What about the IC50 [1] of the same compound?
The IC50 was 2.88 nM.

Which results are given for `C=C[C@@H](C)NC(=O)c1cc(Cc2ccnc(NS(=O)(=O)NC)c2F)c(F)c(F)c1Nc1ccc(I)cc1F` [Compound 4-5, (R)-N-(but-3-en-2-yl)-3,4-difluoro-5-((3-fluoro-2-((N-methylaminosulfonyl)amino)pyridin-4-yl)methyl)-2-((2-fluoro-4-iodophenyl)amino)benzamide]?
IC50 [2]: < 20 nM; IC50 [1]: 2.13 nM

With `[2H]C([2H])([2H])NS(=O)(=O)Nc1nccc(Cc2cc(C(=O)NCC=C)c(Nc3ccc(I)cc3F)c(F)c2F)c1F` [Compound 4-10, N-allyl-3,4-difluoro-5-((3-fluoro-2-((N-methyl-d3-aminosulfonyl)amino)pyridin-4-yl)methyl)-2-((2-fluoro-4-iodophenyl)amino)benzamide] as the compound, how does the IC50 [2] read?
The IC50 was under 20 nM.

What about the IC50 [3] of the same compound?
The IC50 was 1.05 nM.

And the IC50 [1]?
The IC50 was 0.89 nM.

With `C=CCNC(=O)c1cc(Cc2ccnc(NS(=O)(=O)NC)c2F)c(F)c(F)c1Nc1ccc(C=C)cc1F` [Compound 4-14, N-allyl-3,4-difluoro-5-((3-fluoro-2-((N-methylaminosulfonyl)amino)pyridin-4-yl)methyl)-2-((2-fluoro-4-vinylphenyl)amino)benzamide] as the compound, how does the IC50 [2] read?
The IC50 was under 20 nM.

What about the IC50 [3] of the same compound?
The IC50 was 2.67 nM.
